Laboratory results as given in patent US20040175782A1, “Biotransformation of compounds using non-prokaryotic microalgae” (TETHYS RESEARCH LLC, priority 2003, published 2004).

Experiments:
Chlamydomonas = assay: growth (cell counts) of microalgae in the presence of precursor compound; type: cell-based, Chlamydomonas reinhardtii; details: 100 μg/ml, cell counts on days 0, 2, 4 and 7, relative to growth controls
Experimental: (§1) Three 15 ml cultures of each of the microalgae listed in Table III above were grown in 30 ml flasks. Growth control cultures contained algae and medium only. Growth control cultures in the presence of solvent contained algae, medium, and 0.06 ml of methanol, the solvent chosen for the precursor compound. Experimental cultures contained algae, medium, and 0.06 ml of a 25 mg/ml solution of (S)-(−)-3-(Benzyloxycarbonyl)-4-oxazolidinecarboxylic acid (precursor compound) dissolved in methanol, yielding a final concentration of 100 μg/ml. Cell counts were performed using a haemocytometer on days 0, 2, 4 and 7.

Chloromonas rosae = assay: final biotransformation culture, 7 days in the presence of precursor; type: cell-based; details: 100 μg/ml precursor, starting cell concentration 1.75 × 10^5
Experimental: (§2) Table V below lists each microalgae in the final panel, its starting cell concentration, the concentration of precursor compound in the growth medium, the starting and final cell count, and the method of separation of the resulting biomass from the culture supernatant. The final panel of algal strains were grown for 7 days under the conditions listed in Table III above in the presence of the precursor compound prior to separation of the resulting biomass from the culture supernatant.

Moromastix sp. = assay: as above; type: cell-based; details: 200 μg/ml precursor, starting cell concentration 6.16 × 10^5
Experimental: as §2

Cryptocrysis rubens = assay: as above; type: cell-based; details: 200 μg/ml precursor, starting cell concentration not determined
Experimental: as §2

Chlorella = assay: growth (cell counts) of microalgae in the presence of precursor compound; type: cell-based, Chlorella minutisima; details: 100 μg/ml, cell counts on days 0, 2, 4 and 7, relative to growth controls
Experimental: as §1
as §1, with “VIII” for “III”, “Precursor 2.” for “the precursor compound.”, “tert-butyl[S-(R*-R*)]-(−)-(1-oxiranyl-2-phenylethylcarbamate)” for “(S)-(−)-3-(Benzyloxycarbonyl)-4-oxazolidinecarboxylic acid”, “concentration in the culture medium” for “concentration”

Platymonas = assay: as above; type: cell-based, Platymonas sp.; details: 100 μg/ml, cell counts on days 0, 2, 4 and 7, relative to growth controls
Experimental: as §1

Olithodiscus sp. = assay: final biotransformation culture, 7 days in the presence of precursor; type: cell-based; details: 50 μg/ml precursor, starting cell concentration 1.09 × 10^6
Experimental: (§3) Table V below lists each microalgae in the final panel, its starting cell concentration, the concentration of precursor compound in the growth medium, the starting and final cell count, and the method of separation of the resulting biomass from the culture supernatant. The final panel of algal strains were grown for 7 days under the conditions listed in Table III above in the presence of the precursor compound prior to separation of the resulting biomass from the culture supernatant. Cell counts were not determined in every case for the strains listed in Table V. Table X below lists each microalgae in the final panel, its starting cell concentration, the concentration of precursor compound in the growth medium, the starting and final cell count, and the method of separation of the resulting biomass from the culture supernatant. The final panel of algal strains was grown for 7 days under the conditions listed in Table VIII above in the presence of Precursor 2 prior to separation of the resulting biomass from the culture supernatant.

Scenedesmus obliquus = assay: as above; type: cell-based; details: 200 μg/ml precursor, starting cell concentration 6.38 × 10^6
Experimental: as §3

[1] = test system: Phaeodactylum tricornutum; assay: as above; type: cell-based; details: 200 μg/ml precursor, starting cell concentration 1.18 × 10^6
Experimental: as §3

Chlorella minutisima = assay: as above; type: cell-based; details: 100 μg/ml precursor, starting cell concentration 1.52 × 10^6
Experimental: as §3

Cryptomonas ovata = assay: as above; type: cell-based; details: 200 μg/ml precursor, starting cell concentration not determined
Experimental: as §3

[2] = test system: Chlamydomonas reinhardtii; assay: as above; type: cell-based; details: 200 μg/ml precursor, starting cell concentration 2.2 × 10^7
Experimental: as §3

Euglena gracilis = assay: as above; type: cell-based; details: 100 μg/ml precursor, starting cell concentration not determined
Experimental: as §3

Phaeodactylum = assay: growth (cell counts) of microalgae in the presence of precursor compound; type: cell-based, Phaeodactylum tricornutum; details: 100 μg/ml, cell counts on days 0, 2, 4 and 7, relative to growth controls
Experimental: as §1
as §1, with “VIII” for “III”, “Precursor 2.” for “the precursor compound.”, “tert-butyl[S-(R*-R*)]-(−)-(1-oxiranyl-2-phenylethylcarbamate)” for “(S)-(−)-3-(Benzyloxycarbonyl)-4-oxazolidinecarboxylic acid”, “concentration in the culture medium” for “concentration”

Botrydium = assay: as above; type: cell-based; details: 100 μg/ml, cell counts on days 0, 2, 4 and 7, relative to growth controls
Experimental: as §1

O=C(O)[C@@H]1COCN1C(=O)OCc1ccccc1 [precursor compound, (S)-(−)-3-(Benzyloxycarbonyl)-4-oxazolidinecarboxylic acid]
effect on growth of Chlamydomonas (Chlamydomonas): moderate, but not severe decreases in growth relative to the growth controls
Final Cell Concentration (Chloromonas rosae): 1.13 × 10^6
Final Cell Concentration (Moromastix sp.): 7.4 × 10^5
Final Cell Concentration (Cryptocrysis rubens): 3.09 × 10^6
effect on growth of Chlorella (Chlorella): increased growth relative to the growth controls
effect on growth of Chlorella (Chlorella; listed as Precursor 2 used in Example 1): negatively affected
effect on growth of Platymonas (Platymonas): causing cell death
Final Cell Concentration (Olithodiscus sp.): 1.3 × 10^6
Final Cell Concentration (Scenedesmus obliquus): 2.12 × 10^7
Final Cell Concentration [1]: 4.08 × 10^6
Final Cell Concentration (Chlorella minutisima): 1.08 × 10^7
Final Cell Concentration (Cryptomonas ovata): 1.3 × 10^5
Final Cell Concentration [2]: 1.58 × 10^9
Final Cell Concentration (Euglena gracilis): 6.6 × 10^5
effect on growth of Phaeodactylum (Phaeodactylum): moderate, but not severe decreases in growth relative to the growth controls
effect on growth of Botrydium (Botrydium): increased growth relative to the growth controls
